Experimental data reported in publication PMC8011197, “A polo-like kinase modulates cytokinesis and flagella biogenesis in Giardia lamblia” (Parasites & Vectors, 2021).

Legend:
Assay type in all cases: cell-based
[1] = tested on: Giardia lamblia trophozoites; test: Nuclear phenotype (number, position, condensation of nuclei) of Giemsa-stained cells; conditions: for Percentage of cells, 1N / Percentage of cells, 2N, abnormal / Percentage of cells, 2N, normal / Percentage of cells, 3N / Percentage of cells, 4N / Percentage of cells, >4N: 5 µM GW
Method: For the microscopic observation of cells, the cells were attached to slides, air-dried and fixed with 100% methanol for 10 min, following which they were stained with 10% Giemsa solution for 40 min and washed with distilled water. After mounting with dibutyl phthalate xylene (Sigma-Aldrich, St. Louis, MO, USA), the slides were observed under an Axiovert 200 microscope (Carl Zeiss AG, Oberkochen, Germany). For each condition, at least 300 cells were examined to determine the number and position of the nuclei. Among cells with two nuclei in normal positions, the number of cells showing nuclei condensation was also recorded. Data are presented as the mean ± standard deviation (SD) of three independent experiments. […]

[2] = tested on: Giardia lamblia trophozoites; test: Growth inhibition of Giardia trophozoites, hemocytometer count after 24 h; conditions: Giardia duodenalis, GW 5–15 μM, 2 × 10^4 cells/ml, read-out: IC50, inhibition of growth of G. lamblia
Method: After treatment for 24 h, the number of parasites per milliliter was determined using a hemocytometer. Giardia trophozoites treated with 0.3% dimethyl sulfoxide (DMSO) were used as controls.

[3] = tested on: Giardia lamblia trophozoites; test: DNA content / cell cycle phase by flow cytometry (PI)
Method: Both the GW-treated and control G. lamblia cells were analyzed for their DNA content using flow cytometry. Briefly, the harvested cells were resuspended in 50 μl TYI-S-33 culture medium and treated with 150 μl of a cell fixative (1% Triton X-100, 40 mM citric acid, 20 mM dibasic sodium phosphate, 200 mM sucrose; pH 3.0) at room temperature for 5 min. The samples were diluted with 350 μl of diluent buffer [125 mM MgCl2 in phosphate-buffered saline (PBS: 137 mM NaCl, 2.7 mM KCl, 10.1 mM Na2HPO4 and 2 mM KH2PO4, pH 7.4)] and then stored at 4 °C until use. Fixed cells were treated with 2.5 μg RNase A (Sigma-Aldrich) and 10 μg/ml propidium iodide (PI; Sigma-Aldrich) for 30 min at 37 °C. […] Along representative histograms, averages of three independent experiments were presented in bar graphs.
Expression of GlPLK was knocked down using a morpholino, as described previously. A specific morpholino for GlPLK was designed by Gene Tools (Philomath, OR, USA) (see Table 1 for sequences). Nonspecific oligomers were used as a control morpholino (Table 1). Cells (5 × 10^6 in 0.3 ml medium) were treated with the lyophilized morpholino at a final concentration of 100 nM. After electroporation, the cells were grown for various lengths of time, ranging from 12 to 48 h, and analyzed for GlPLK inhibition by western blotting using anti-HA and anti-GlPLK antibodies. The cells at 18 h post-transfection were analyzed for their nuclear phenotypes, including the number and position of nuclei and condensation and flagella length, as described above. In addition, cells transfected with control or anti-glplk morpholino were harvested at 6 or 18 h, and then evaluated with respect to their DNA content by flow cytometry followed by analysis using FlowJo software (FlowJo Llc). […]
These cells were then analyzed by flow cytometry to determine the ploidy of their DNA. Intracellular levels of GlPLK protein in the DMSO-treated, nocodazole-treated and nocodazole/aphidicolin-treated Giardia cells were determined by western blotting. The intracellular levels of glplk transcripts were also measured in these cells.

[4] = tested on: Giardia lamblia trophozoites; test: Flagella length of Giemsa-stained cells (DIC images, Fiji/ImageJ); conditions: 5 µM GW
From the text: To measure flagella length, we observed Giemsa-stained cells under an Axiovert 200 microscope and analyzed their differential interference contrast (DIC) images using Fiji, an open-source platform for biological-image analysis. Each of four types of flagella were divided into cytoplasmic and membrane-bound categories and then measured using the line Freehand Tracing 0mode in ImageJ software (http://imagej.nih.gov/ij/). […] Data are presented as the mean ± SD of three independent experiments.
Expression of GlPLK was knocked down using a morpholino, as described previously. A specific morpholino for GlPLK was designed by Gene Tools (Philomath, OR, USA) (see Table 1 for sequences). Nonspecific oligomers were used as a control morpholino (Table 1). Cells (5 × 10^6 in 0.3 ml medium) were treated with the lyophilized morpholino at a final concentration of 100 nM. After electroporation, the cells were grown for various lengths of time, ranging from 12 to 48 h, and analyzed for GlPLK inhibition by western blotting using anti-HA and anti-GlPLK antibodies. The cells at 18 h post-transfection were analyzed for their nuclear phenotypes, including the number and position of nuclei and condensation and flagella length, as described above. In addition, cells transfected with control or anti-glplk morpholino were harvested at 6 or 18 h, and then evaluated with respect to their DNA content by flow cytometry followed by analysis using FlowJo software (FlowJo Llc). Transfection was performed at least five times, and the data presented were derived from three independent knockdown experiments.

COc1cc2ncn(-c3cc(OCc4ccccc4C(F)(F)F)c(C(N)=O)s3)c2cc1OC [GW, GW843682X]
Percentage of cells, 1N ([1]; 3 h): 0.4±0.1%
Percentage of cells, 2N, abnormal ([1]; 3 h): 0.7±0.3%
Percentage of cells, 2N, normal ([1]; 3 h): 97.2±0.8%
Percentage of cells, 3N ([1]; 3 h): 0.2±0.1%
Percentage of cells, 4N ([1]; 3 h): 0.7±0.2%
Percentage of cells, >4N ([1]; 3 h): 0.8±0.3%
Percentage of cells, 1N ([1]; 6 h): 0.3±0.2%
Percentage of cells, 2N, abnormal ([1]; 6 h): 0.8±0.3%
Percentage of cells, 2N, normal ([1]; 6 h): 96.9±0.7%
Percentage of cells, 3N ([1]; 6 h): 0.3±0.1%
Percentage of cells, 4N ([1]; 6 h): 0.8±0.2%
Percentage of cells, >4N ([1]; 6 h): 0.9±0.4%
Percentage of cells with condensed nuclei ([1]; 5 μM GW, 6 h, compared to DMSO-treated cells): significantly increased
Percentage of cells, 1N ([1]; 9 h): 1.2±0.1%
Percentage of cells, 2N, abnormal ([1]; 9 h): 1.3±0.3%
Percentage of cells, 2N, normal ([1]; 9 h): 91.7±0.1%
Percentage of cells, 3N ([1]; 9 h): 1.3±0.4%
Percentage of cells, 4N ([1]; 9 h): 3.3±0.4%
Percentage of cells, >4N ([1]; 9 h): 1.7±0.3%
Percentage of cells, 1N ([1]; 12 h): 1.2±0.1%
Percentage of cells, 2N, abnormal ([1]; 12 h): 1.4±0.6%
Percentage of cells, 2N, normal ([1]; 12 h): 91.0±1.4%
Percentage of cells, 3N ([1]; 12 h): 1.5±0.4%
Percentage of cells, 4N ([1]; 12 h): 3.1±0.9%
Percentage of cells, >4N ([1]; 12 h): 1.9±0.8%
Percentage of cells, 1N ([1]; 15 h): 1.1±0.2%
Percentage of cells, 2N, abnormal ([1]; 15 h): 1.6±0.5%
Percentage of cells, 2N, normal ([1]; 15 h): 86.1±1.4%
Percentage of cells, 3N ([1]; 15 h): 1.5±0.3%
Percentage of cells, 4N ([1]; 15 h): 6.7±0.5%
Percentage of cells, >4N ([1]; 15 h): 3.1±0.6%
Percentage of cells, 1N ([1]; 18 h): 0.9±0.3%
Percentage of cells, 2N, abnormal ([1]; 18 h): 0.9±0.4%
Percentage of cells, 2N, normal ([1]; 18 h): 88.5±1.2%
Percentage of cells, 3N ([1]; 18 h): 1.6±0.4%
Percentage of cells, 4N ([1]; 18 h): 5.4±0.8%
Percentage of cells, >4N ([1]; 18 h): 2.7±0.5%
Percentage of cells, 1N ([1]; 24 h): 1.2±0.3%
Percentage of cells, 2N, abnormal ([1]; 24 h): 1.6±0.5%
Percentage of cells, 2N, normal ([1]; 24 h): 85.6±0.5%
Percentage of cells, 3N ([1]; 24 h): 2.3±0.2%
Percentage of cells, 4N ([1]; 24 h): 6.1±0.5%
Percentage of cells, >4N ([1]; 24 h): 3.2±0.4%
IC50 [2]: 7 µM
Percentage of cells at G2/M phase ([3]; 5 μM GW, 6 and 12 h, control 72–73%): 86%
Length of cytoplasmic part of posterolateral, anterior and caudal flagella [4]: None of the three flagella showed any significant change
Length of membrane-bound portion of posterolateral and ventral flagella ([4]; 18 h): did not induce a significant increase
Length of membrane-bound part of caudal flagella ([4]; 18 h, DMSO 7.2 μm): 11.1 µm
Length of membrane-bound part of anterior flagella ([4]; 18 h, DMSO 9.0 μm): 11.3 µm

C[C@@]1(CO)[C@H](O)CC[C@@]2(C)[C@H]1CC[C@H]1C[C@@H]3C[C@@]12CC[C@]3(O)CO [aphidicolin]
Percentage of G1/S-arrested cells after synchronization ([3]; sequentially 100 nM nocodazole, then 6 μM aphidicolin 6 h, Giardia carrying pGlPLK.neo): 86%

COC(=O)Nc1nc2ccc(C(=O)c3cccs3)cc2[nH]1 [nocodazole]
Percentage of G2/M-phase cells after synchronization ([3]; 100 nM nocodazole, Giardia carrying pGlPLK.neo, 0.01% DMSO control 78%): 91%
